Numbered stars: 1 amine (or outer) side, 2 acyl side, 3 side chain; on linkers, the order of the positions; unused ones are H or OH. Square brackets hold non-standard residues; d marks the D form. Side chains are listed from the residue outwards. Peptide text beside a SMILES is read from it. * marks the point of attachment. C20 diacid = O=C(O)CCCCCCCCCCCCCCCCCCC(=O)*; γGlu = O=C(O)[C@H](CCC(=O)[*:2])N[*:1]; AEEA = NCCOCCOCC(=O)O; Aib = CC(C)(N)C(=O)O
Legend:
[1] = biological target: T1, gastric inhibitory peptide receptor (GIPR) (Homo sapiens, UniProt P48546); experiment: cAMP pharmacological functional assay in presence of casein, hGIPR; type: cell-based; details: HEK293 cells expressing hGIPR, 0.1% Casein, geometric mean; read-out: hGIPR cAMP Rel EC50 nM (SEM, n)
T1 sequence (P48546 22-466): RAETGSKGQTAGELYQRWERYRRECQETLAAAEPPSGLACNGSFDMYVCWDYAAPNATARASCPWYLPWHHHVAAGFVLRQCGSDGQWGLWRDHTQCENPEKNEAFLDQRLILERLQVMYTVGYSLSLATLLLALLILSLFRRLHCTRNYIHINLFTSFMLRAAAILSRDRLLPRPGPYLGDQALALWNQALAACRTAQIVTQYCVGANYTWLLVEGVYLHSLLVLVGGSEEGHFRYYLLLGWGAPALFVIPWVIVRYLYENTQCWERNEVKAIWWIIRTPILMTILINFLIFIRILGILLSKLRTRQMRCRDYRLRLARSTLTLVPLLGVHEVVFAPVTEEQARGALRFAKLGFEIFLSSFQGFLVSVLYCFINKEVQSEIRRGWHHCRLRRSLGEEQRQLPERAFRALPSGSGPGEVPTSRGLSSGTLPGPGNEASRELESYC

[2] = biological target: human GLP-1 receptor (GLP-1R) (Homo sapiens, UniProt P43220); experiment: cAMP pharmacological functional assay in presence of casein, hGLP-1R; type: cell-based; details: HEK293 cells expressing hGLP-1R, 0.1% Casein, geometric mean; read-out: hGLP1R cAMP Rel EC50 nM (SEM, n)
human GLP-1 receptor (GLP-1R), sequence (P43220 24-463): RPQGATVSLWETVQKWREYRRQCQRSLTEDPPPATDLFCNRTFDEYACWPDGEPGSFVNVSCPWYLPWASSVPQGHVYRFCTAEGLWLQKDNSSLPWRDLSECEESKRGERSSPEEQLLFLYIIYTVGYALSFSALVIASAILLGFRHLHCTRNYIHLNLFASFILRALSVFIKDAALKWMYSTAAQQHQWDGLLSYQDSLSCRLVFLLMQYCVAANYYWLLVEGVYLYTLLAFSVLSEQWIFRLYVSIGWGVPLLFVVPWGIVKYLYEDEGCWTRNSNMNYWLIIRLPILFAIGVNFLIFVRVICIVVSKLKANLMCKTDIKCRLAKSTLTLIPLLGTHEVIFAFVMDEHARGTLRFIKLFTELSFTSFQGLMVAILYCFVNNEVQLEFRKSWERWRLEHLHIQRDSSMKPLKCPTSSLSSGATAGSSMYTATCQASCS

`CC[C@H](C)[C@H](NC(=O)[C@H](CC(C)C)NC(=O)[C@H](Cc1ccc(O)cc1)NC(=O)[C@H](CCC(=O)O)NC(=O)[C@@H](NC(=O)[C@H](Cc1ccccc1)NC(=O)[C@H](C)NC(=O)[C@H](CCCCN)NC(=O)[C@H](CCC(N)=O)NC(=O)[C@H](C)NC(=O)[C@H](CCCCNC(=O)COCCOCCNC(=O)COCCOCCNC(=O)CC[C@H](NC(=O)CCCCCCCCCCCCCCCCCCC(=O)O)C(=O)O)NC(=O)[C@H](CCC(=O)O)NC(=O)[C@H](CC(=O)O)NC(=O)[C@H](CC(C)C)NC(=O)[C@H](CC(C)C)NC(=O)[C@@H](NC(=O)[C@H](CO)NC(=O)[C@H](Cc1ccc(O)cc1)NC(=O)[C@H](CC(=O)O)NC(=O)[C@H](CO)NC(=O)[C@@H](NC(=O)[C@H](Cc1ccccc1)NC(=O)[C@@H](NC(=O)CNC(=O)[C@H](CCC(=O)O)NC(=O)C(C)(C)NC(=O)[C@@H](N)Cc1ccc(O)cc1)[C@@H](C)O)[C@@H](C)O)[C@@H](C)CC)[C@@H](C)CC)C(=O)N[C@@H](CCC(=O)O)C(=O)NCC(=O)NCC(=O)N1CCC[C@H]1C(=O)N[C@@H](CO)C(=O)N[C@@H](CO)C(=O)NCC(=O)N[C@@H](C)C(=O)N1CCC[C@H]1C(=O)N1CCC[C@H]1C(=O)N1CCC[C@H]1C(=O)N[C@@H](CO)C(N)=O` [Example 258] (H-Y[Aib]EGTFTSDYSILLDEK([AEEA-AEEA-γGlu-C20 diacid])AQKAFIEYLIEGGPSSGAPPPS-NH2; N-terminus assumed) gave an EC50 [1] of 2.43 nM and an EC50 [2] of 0.174 nM.

Compound `CC[C@H](C)[C@H](NC(=O)[C@H](CC(C)C)NC(=O)[C@H](Cc1ccc(O)cc1)NC(=O)[C@H](CCC(=O)O)NC(=O)[C@@H](NC(=O)[C@H](Cc1ccccc1)NC(=O)[C@H](C)NC(=O)C(C)(C)NC(=O)[C@H](CCC(N)=O)NC(=O)[C@H](C)NC(=O)[C@H](CCCCNC(=O)COCCOCCNC(=O)COCCOCCNC(=O)CC[C@H](NC(=O)CCCCCCCCCCCCCCCCCCC(=O)O)C(=O)O)NC(=O)[C@H](CCC(=O)O)NC(=O)[C@H](CC(=O)O)NC(=O)[C@H](CC(C)C)NC(=O)[C@H](CC(C)C)NC(=O)[C@@H](NC(=O)[C@H](CO)NC(=O)[C@H](Cc1ccc(O)cc1)NC(=O)[C@H](CC(=O)O)NC(=O)[C@H](CO)NC(=O)[C@@H](NC(=O)[C@H](Cc1ccccc1)NC(=O)[C@@H](NC(=O)CNC(=O)[C@H](CCC(=O)O)NC(=O)C(C)(C)NC(=O)[C@@H](N)Cc1ccc(O)cc1)[C@@H](C)O)[C@@H](C)O)[C@@H](C)CC)[C@@H](C)CC)C(=O)N[C@@H](CCC(=O)O)C(=O)NCC(=O)NCC(=O)N1CCC[C@H]1C(=O)N[C@@H](CO)C(=O)N[C@@H](CO)C(=O)NCC(=O)N[C@@H](C)C(=O)N1CCC[C@H]1C(=O)N1CCC[C@H]1C(=O)N1CCC[C@H]1C(=O)N[C@@H](CO)C(N)=O` [Example 259] (H-Y[Aib]EGTFTSDYSILLDEK([AEEA-AEEA-γGlu-C20 diacid])AQ[Aib]AFIEYLIEGGPSSGAPPPS-NH2; N-terminus assumed) has an EC50 [1] of 0.257 nM and an EC50 [2] of 0.145 nM.

Work on `CC[C@H](C)[C@H](NC(=O)[C@H](CC(C)C)NC(=O)[C@H](Cc1ccc(O)cc1)NC(=O)[C@H](CCC(=O)O)NC(=O)[C@@H](NC(=O)[C@H](Cc1ccccc1)NC(=O)[C@H](C)NC(=O)C(C)(C)NC(=O)[C@H](CCC(N)=O)NC(=O)[C@H](C)NC(=O)[C@H](CCCCNC(=O)COCCOCCNC(=O)COCCOCCNC(=O)CC[C@H](NC(=O)CCCCCCCCCCCCCCCCCCC(=O)O)C(=O)O)NC(=O)[C@H](CCCCN)NC(=O)[C@H](CC(=O)O)NC(=O)[C@H](CC(C)C)NC(=O)[C@H](CC(C)C)NC(=O)[C@@H](NC(=O)[C@H](CO)NC(=O)[C@H](Cc1c[nH]cn1)NC(=O)[C@H](CC(=O)O)NC(=O)[C@H](CO)NC(=O)[C@@H](NC(=O)[C@H](Cc1ccccc1)NC(=O)[C@@H](NC(=O)CNC(=O)[C@H](CCC(=O)O)NC(=O)C(C)(C)NC(=O)[C@@H](N)Cc1ccc(O)cc1)[C@@H](C)O)[C@@H](C)O)[C@@H](C)CC)[C@@H](C)CC)C(=O)N[C@@H](CCC(=O)O)C(=O)NCC(=O)NCC(=O)N1CCC[C@H]1C(=O)N[C@@H](CO)C(=O)N[C@@H](CO)C(=O)NCC(=O)N[C@@H](C)C(=O)N1CCC[C@H]1C(=O)N1CCC[C@H]1C(=O)N1CCC[C@H]1C(=O)N[C@@H](CO)C(N)=O` [Example 260] (H-Y[Aib]EGTFTSDHSILLDKK([AEEA-AEEA-γGlu-C20 diacid])AQ[Aib]AFIEYLIEGGPSSGAPPPS-NH2; N-terminus assumed) yielded an EC50 [1] of 0.617 nM and an EC50 [2] of 0.408 nM.

In the case of `CC[C@H](C)[C@H](NC(=O)[C@H](CC(C)C)NC(=O)[C@H](Cc1ccc(O)cc1)NC(=O)[C@H](CCC(=O)O)NC(=O)[C@@H](NC(=O)[C@H](Cc1ccccc1)NC(=O)[C@H](C)NC(=O)[C@H](CCC(=O)O)NC(=O)[C@H](CCC(N)=O)NC(=O)[C@H](C)NC(=O)[C@H](CCCCNC(=O)COCCOCCNC(=O)COCCOCCNC(=O)CC[C@H](NC(=O)CCCCCCCCCCCCCCCCCCC(=O)O)C(=O)O)NC(=O)[C@H](CCCCN)NC(=O)[C@H](CC(=O)O)NC(=O)[C@H](CC(C)C)NC(=O)[C@H](CC(C)C)NC(=O)[C@@H](NC(=O)[C@H](CO)NC(=O)[C@H](Cc1ccc(O)cc1)NC(=O)[C@H](CC(=O)O)NC(=O)[C@H](CO)NC(=O)[C@@H](NC(=O)[C@H](Cc1ccccc1)NC(=O)[C@@H](NC(=O)CNC(=O)[C@H](CCC(=O)O)NC(=O)C(C)(C)NC(=O)[C@@H](N)Cc1ccc(O)cc1)[C@@H](C)O)[C@@H](C)O)[C@@H](C)CC)[C@@H](C)CC)C(=O)N[C@@H](CCC(=O)O)C(=O)NCC(=O)NCC(=O)N1CCC[C@H]1C(=O)N[C@@H](CO)C(=O)N[C@@H](CO)C(=O)NCC(=O)N[C@@H](C)C(=O)N1CCC[C@H]1C(=O)N1CCC[C@H]1C(=O)N1CCC[C@H]1C(=O)N[C@@H](CO)C(N)=O` [Example 261] (H-Y[Aib]EGTFTSDYSILLDKK([AEEA-AEEA-γGlu-C20 diacid])AQEAFIEYLIEGGPSSGAPPPS-NH2), the EC50 [1] is reported as 0.16 nM and the EC50 [2] is reported as 0.0948 nM.

In the case of `CC[C@H](C)[C@H](NC(=O)[C@H](CC(C)C)NC(=O)[C@H](Cc1ccc(O)cc1)NC(=O)[C@H](CCC(=O)O)NC(=O)[C@@H](NC(=O)[C@H](Cc1ccccc1)NC(=O)[C@H](C)NC(=O)[C@@H](NC(=O)[C@H](CCC(N)=O)NC(=O)[C@H](C)NC(=O)[C@H](CCCCNC(=O)COCCOCCNC(=O)COCCOCCNC(=O)CC[C@H](NC(=O)CCCCCCCCCCCCCCCCCCC(=O)O)C(=O)O)NC(=O)[C@H](CCCCN)NC(=O)[C@H](CC(=O)O)NC(=O)[C@H](CC(C)C)NC(=O)[C@H](CC(C)C)NC(=O)[C@@H](NC(=O)[C@H](CO)NC(=O)[C@H](Cc1ccc(O)cc1)NC(=O)[C@H](CC(=O)O)NC(=O)[C@H](CO)NC(=O)[C@@H](NC(=O)[C@H](Cc1ccccc1)NC(=O)[C@@H](NC(=O)CNC(=O)[C@H](CCC(=O)O)NC(=O)C(C)(C)NC(=O)[C@@H](N)Cc1ccc(O)cc1)[C@@H](C)O)[C@@H](C)O)[C@@H](C)CC)[C@@H](C)O)[C@@H](C)CC)C(=O)N[C@@H](CCC(=O)O)C(=O)NCC(=O)NCC(=O)N1CCC[C@H]1C(=O)N[C@@H](CO)C(=O)N[C@@H](CO)C(=O)NCC(=O)N[C@@H](C)C(=O)N1CCC[C@H]1C(=O)N1CCC[C@H]1C(=O)N1CCC[C@H]1C(=O)N[C@@H](CO)C(N)=O` [Example 262] (H-Y[Aib]EGTFTSDYSILLDKK([AEEA-AEEA-γGlu-C20 diacid])AQTAFIEYLIEGGPSSGAPPPS-NH2), the EC50 [1] is reported as 0.13 nM and the EC50 [2] is reported as 0.0943 nM.

`CC[C@H](C)[C@H](NC(=O)[C@H](CC(C)C)NC(=O)[C@H](Cc1ccc(O)cc1)NC(=O)[C@H](CCC(=O)O)NC(=O)[C@@H](NC(=O)[C@H](Cc1ccccc1)NC(=O)[C@H](C)NC(=O)[C@H](CO)NC(=O)[C@H](CCC(N)=O)NC(=O)[C@H](C)NC(=O)[C@H](CCCCNC(=O)COCCOCCNC(=O)COCCOCCNC(=O)CC[C@H](NC(=O)CCCCCCCCCCCCCCCCCCC(=O)O)C(=O)O)NC(=O)[C@H](CCCCN)NC(=O)[C@H](CC(=O)O)NC(=O)[C@H](CC(C)C)NC(=O)[C@H](CC(C)C)NC(=O)[C@@H](NC(=O)[C@H](CO)NC(=O)[C@H](Cc1ccc(O)cc1)NC(=O)[C@H](CC(=O)O)NC(=O)[C@H](CO)NC(=O)[C@@H](NC(=O)[C@H](Cc1ccccc1)NC(=O)[C@@H](NC(=O)CNC(=O)[C@H](CCC(=O)O)NC(=O)C(C)(C)NC(=O)[C@@H](N)Cc1ccc(O)cc1)[C@@H](C)O)[C@@H](C)O)[C@@H](C)CC)[C@@H](C)CC)C(=O)N[C@@H](CCC(=O)O)C(=O)NCC(=O)NCC(=O)N1CCC[C@H]1C(=O)N[C@@H](CO)C(=O)N[C@@H](CO)C(=O)NCC(=O)N[C@@H](C)C(=O)N1CCC[C@H]1C(=O)N1CCC[C@H]1C(=O)N1CCC[C@H]1C(=O)N[C@@H](CO)C(N)=O` [Example 263] (H-Y[Aib]EGTFTSDYSILLDKK([AEEA-AEEA-γGlu-C20 diacid])AQSAFIEYLIEGGPSSGAPPPS-NH2) showed an EC50 [1] of 0.317 nM and an EC50 [2] of 0.0785 nM.

Reference: patent publication US12252524B2, “GIP/GLP1 co-agonist compounds” (Eli Lilly and Company, priority 2018, dated 2025)
